# Source: US9226919B2, “Methods for dosing an orally active 1,2,4-oxadiazole” (PTC Therapeutics, Inc., priority 2006, dated 2016)
# Read-outs that look alike come from different tables or passages of the source.
# Legend:
# Type in all cases: in vivo, human
# [1] = tested on: patients with nonsense-mutation-mediated cystic fibrosis; assay: Pulmonary function tests (FEV1, FVC), Phase 2 cystic fibrosis study
# Protocol: Pulmonary function tests, including FEV1, FVC, and MEF25-75, are measured using standard spirometry procedures. Assessments of pulmonary function (including MEF25-75, FVC, and, particularly, FEV1) have been acknowledged as definitive clinical endpoints in patients with CF (Food and Drug Administration, 62nd Anti-Infective Drugs Advisory Committee. Discussion of NDA for tobramycin solution for inhalation (Tobi®) for the management of cystic fibrosis patients. November, 1997; Tiddens, 2002, Pediatr. Pulmonol. 34(3): 228-31). […] Pulmonary function testing is simple to administer (even in patients as young as 7 years of age), and uses standardized equipment and techniques that are widely available. Interpretation is performed using well-established normative equations that account for patient age, height, and gender.
# 3-[5-(2-Fluoro-phenyl)-[1,2,4]oxadiazol-3-yl]-benzoic acid was provided in a formulation described herein.
# Clinical endpoints were evaluated using the procedures set forth above. TEPD measurements were made prior to treatment and on days 14 and 28 of Cycle 1 and Cycle 2. Nasal mucosal curettage was collected from each nostril of each patient prior to treatment and on days 14 and 28 of Cycle 1 and Cycle 2. Pulmonary tests, including FEV1, FVC and MEF25-75, were measured prior to treatment, on day −1 of Cycle 2, on day 13 or 14 of Cycle 1 and day 13 or 14 of Cycle 2 in the study being conducted in Israel and the same parameters were measured prior to treatment and on day 13 or 14 of Cycle 2 in the study being conducted in the United States.
# Statistically significant results and positive trends for secondary endpoints were also observed. In particular, although the trials were not been powered to detect statistical significant changes in secondary endpoints, statistically significant improvements from study entry to the end of the higher-dose treatment cycle in the patients' mean FEV1, FVC and weight were observed.
# [2] = tested on: cough; assay: Quantitative cough assessment (LifeShirt), mean cough frequency over 24 hours; details: FIG. 2; initial improvement, temporary increase, then overall improvement
# Protocol: FIG. 2 provides the effect on mean cough frequency over 24 hours by the administration of 3-[5-(2-fluoro-phenyl)-[1,2,4]oxadiazol-3-yl]-benzoic acid to a subject.
# The VivoMetrics, Inc. LifeShirt® incorporates motion-sensing transducers, electrodes, a throat microphone, calibration bag, and a 3-axis accelerometer into a lightweight, washable vest that is available for patients≧5 years of age (see LifeShirt® Monitoring System QuickStart Guide, incorporated by reference herein in its entirety). Using integrated input from the motion sensors and microphone, the frequency and intensity of cough can be measured. […]
# The device was used to obtain the data set forth in FIG. 2 and will be used to offer substantial supplementary data regarding the clinical benefits of 3-[5-(2-fluoro-phenyl)-[1,2,4]oxadiazol-3-yl]-benzoic acid during Phase 3 testing in CF. […] Without being limited by theory, based on the hypothesis that 3-[5-(2-fluoro-phenyl)-[1,2,4]oxadiazol-3-yl]-benzoic acid-mediated induction of CFTR function would reduce airway obstruction and inflammation, a decrease in cough frequency could serve as a symptomatic integration of these pharmacological effects and might offer a more accurate and quantitative assessment than verbal patient reporting.
# [3] = Plasma pharmacokinetics, Phase 2 Duchenne muscular dystrophy study; details: for AUC(0-t) / Cmax: human, oral
# Description: FIG. 1 provides the plasma 3-[5-(2-fluoro-phenyl)-[1,2,4]oxadiazol-3-yl]-benzoic acid concentration-time profiles and PK parameters from 37 of 38 patients in a Phase 2 Duchenne muscular dystrophy study at 4-, 4-, and 8-mg/kg; 10-, 10-, and 20-mg/kg; and 20-, 20- and 40-mg/kg dose levels. The data from one patient was excluded from analysis due to insufficient data.
# 3-[5-(2-Fluoro-phenyl)-[1,2,4]oxadiazol-3-yl]-benzoic acid was provided in a formulation described herein. Treatment was administered over 28 days for each treatment cohort. An initial cohort of patients (n=6) were treated daily for 28 days with 3-[5-(2-fluoro-phenyl)-[1,2,4]oxadiazol-3-yl]-benzoic acid at 4-, 4-, and 8-mg/kg TID. After review of the clinical safety results, a second cohort of patients (n=20) were treated daily for 28 days with 3-[5-(2-fluoro-phenyl)-[1,2,4]oxadiazol-3-yl]-benzoic acid at 10-, 10-, and 20-mg/kg TID. Thus, each patient received a total of 84 doses of 3-[5-(2-fluoro-phenyl)-[1,2,4]oxadiazol-3-yl]-benzoic acid.
# Blood for 3-[5-(2-fluoro-phenyl)-[1,2,4]oxadiazol-3-yl]-benzoic acid concentrations is collected immediately pre-dose and at 3 hours after administration of the first daily dose of study drug on the second day of each visit.
# The study drug dosing and sample collection times are recorded. If a heparinized venous catheter is used for sample collection in order to avoid repeated needle sticks, at least 2 mL of blood is removed and discarded prior to each sample collection in order to avoid heparin contamination of the sample. All attempts are made to collect the blood samples at, or within ±5 minutes of, the scheduled time. The timing of the blood draw is in relation to the study drug dosing time.
# Each sample comprises 2 mL of venous blood drawn into a 5-mL Vacutainer® or equivalent tube with K3-EDTA as the anticoagulant. Immediately after collection, the tube is gently inverted 8 to 10 times to mix the anticoagulant with the blood sample. The tube is stored upright on ice until centrifugation; centrifugation and sample processing are performed within 1 hour of sample collection. The plasma fraction is separated by placing the collection tube into a refrigerated centrifuge (4 to 8° C.) in a horizontal rotor (with a swing-out head) for a minimum of 15 minutes at 1500 to 1800 relative centrifugal force (RCF). The plasma fraction is withdrawn by pipette and divided into 2 polypropylene freezing tubes (with each tube receiving approximately equal aliquots). All sample collection and freezing tubes are clearly labeled in a fashion that identifies the subject, the study period, and the collection date and time. Labels are fixed to freezing tubes in a manner that will prevent the label from becoming detached after freezing. After processing, samples are placed into a freezer at approximately −20° C. (or lower).
# Samples are stored for analysis of 3-[5-(2-fluoro-phenyl)-[1,2,4]oxadiazol-3-yl]-benzoic acid at the end of the study using a validated high performance liquid chromatography with tandem mass spectrometry (HPLC/MS-MS) method. Thereafter, samples are retained for potential later analyses.
# [4] = study entry to end of higher dose treatment
# [5] = 10, 10, 20 mg/kg TID, N = 20, mean
# [6] = 20, 20, 40 mg/kg TID, N = 11, mean
compound,measurement,setting,value
"O=C(O)c1cccc(-c2noc(-c3ccccc3F)n2)c1 [3-[5-(2-fluoro-phenyl)-[1,2,4]oxadiazol-3-yl]-benzoic acid]","Mean FEV1 (percentage of normal for gender, age and height), End of Higher Dose Treatment","[1]; end of higher-dose cycle (10, 10, 20 mg/kg TID), study entry 65.8%",69.1%
same,"Mean FVC (percentage of normal for gender, age and height), End of Higher Dose Treatment","[1]; end of higher-dose cycle (10, 10, 20 mg/kg TID), study entry 80.2%",85.1%
same,"Mean FEV1 (percentage of normal), Change",[1]; [4],3.3%
same,"Mean FVC (percentage of normal), Change",[1]; [4],4.9%
same,Mean cough frequency over 24 hours,[2],overall improvement in mean cough frequency
same,"Cmin, Day 1","[3]; 4, 4, 8 mg/kg TID, N = 6, mean",500 ng/mL
same,"Cmin, Day 28","[3]; 4, 4, 8 mg/kg TID, N = 6, mean",600 ng/mL
same,"Cmin, Day 1",[3]; [5],3800 ng/mL
same,"Cmin, Day 28",[3]; [5],3400 ng/mL
same,"Cmin, Day 1",[3]; [6],9600 ng/mL
same,"Cmin, Day 28",[3]; [6],6700 ng/mL
same,AUC(0-t),"[3]; 8 mg/kg, 4, 4, 8 mg/kg TID, N = 6, mean, read-out: AUC0-24, Day 1",87 µg·h/mL
same,AUC(0-t),"[3]; 8 mg/kg, 4, 4, 8 mg/kg TID, N = 6, mean, read-out: AUC0-24, Day 28",91 µg·h/mL
same,Cmax,"[3]; 8 mg/kg, 4, 4, 8 mg/kg TID, N = 6, mean, read-out: Cmax, Day 1",10000 ng/mL
same,Cmax,"[3]; 8 mg/kg, 4, 4, 8 mg/kg TID, N = 6, mean, read-out: Cmax, Day 28",11000 ng/mL
same,AUC(0-t),"[3]; 20 mg/kg, 10, 10, 20 mg/kg TID, N = 20, mean, read-out: AUC0-24, Day 1",291 µg·h/mL
same,AUC(0-t),"[3]; 20 mg/kg, 10, 10, 20 mg/kg TID, N = 20, mean, read-out: AUC0-24, Day 28",235 µg·h/mL
same,Cmax,"[3]; 20 mg/kg, 10, 10, 20 mg/kg TID, N = 20, mean, read-out: Cmax, Day 1",27000 ng/mL
same,Cmax,"[3]; 20 mg/kg, 10, 10, 20 mg/kg TID, N = 20, mean, read-out: Cmax, Day 28",22000 ng/mL
same,AUC(0-t),"[3]; 40 mg/kg, 20, 20, 40 mg/kg TID, N = 11, mean, read-out: AUC0-24, Day 1",866 µg·h/mL
same,AUC(0-t),"[3]; 40 mg/kg, 20, 20, 40 mg/kg TID, N = 11, mean, read-out: AUC0-24, Day 28",490 µg·h/mL
same,Cmax,"[3]; 40 mg/kg, 20, 20, 40 mg/kg TID, N = 11, mean, read-out: Cmax, Day 1",76000 ng/mL
same,Cmax,"[3]; 40 mg/kg, 20, 20, 40 mg/kg TID, N = 11, mean, read-out: Cmax, Day 28",46000 ng/mL
